The record followed here is patent publication US20260240809A1 (EDMOND PHARMA SRL, priority 2022, published 2026).

For data set [1], the target named is T1, TrkA receptor (Homo sapiens, UniProt P04629).
T1 construct: host or cells: SH-SY5Y human neuroblastoma cells
Nature of the data set: Phospho-TrkA (Tyr674/675) ELISA: activation of TrkA receptor by NGF in SH-SY5Y cells. The data set is classed as cell-based. Conditions: for effect on basal activity in absence of NGF: FIG. 4. On the procedure:
The experiment is based on a commercially available ELISA assay evaluating the amount of phosphorylated TrkA (Pandre M K. et al., 2018) and used as indicated in the producer's protocol. The cell culture conditions were described in Marchesi N. et al., 2020.
All the experiments were performed under a laminar flow hood.
The phospho-TrkA (Tyr674/675) protein levels in SH-SY5Y cells were estimated with a specific ELISA kit (Cell Signaling, #7212C.), according to the manufacturer's instructions.
PathScan® Phospho-TrkA (Tyr674/675) Sandwich ELISA Kit is a solid phase sandwich enzyme-linked immunosorbent assay that detects […] levels of Phospho-TrkA (Tyr674/675) protein. A TrkA Mouse mAb #4614 has been coated onto the microwells. After incubation with cell lysates, both phospho- and nonphospho-TrkA proteins are captured by the coated antibody. Following extensive washing to remove any unbound antibody/reagent, Phospho-TrkA (Tyr674/675) Antibody #4610 is added to detect phospho-TrkA protein. Anti-rabbit IgG, HRP-linked Antibody #7074 is then used to recognize the bound detection antibody. HRP substrate, TMB (3,3′,5,5′-tetramethylbenzidine), is added to develop color. The magnitude of optical density is proportional to the quantity of Phospho-TrkA (Tyr674/675) protein.
The color development was stopped and the intensity of the color measured at 450 nm using a Synergy HT microplate reader (BioTek Instruments). The antibodies used in the kit were custom formulations specific for the kit.
A general note: An ELISA detects its analyte on a solid surface through an enzyme-linked reagent.

The subject of data set [2] is SH-SY5Y cells. The data set is classed as cell-based. Conditions: human. On the procedure: Accordingly, two time points were explored: short (90 min) and long (24 hrs). In general, longer times of exposure may sometime influence the chosen response to the test conditions/substances; it is therefore important in the starting exploratory protocols to explore an adequate time interval.
The cellular toxicity was evaluated by measuring the mitochondrial activity through the MTT assay (Marchesi N. et al., 2020).
Mitochondrial enzymatic activity was estimated by MTT [3-(4,5-dimethylthiazol-2-yl)-2,5-diphenyltetrazolium bromide] assay (Sigma-Aldrich). A cell suspension of 2×10^4 cells/mL SH-SY5Y cell line was seeded into 96-well plates.
Following each treatment of 90 minutes and 24 hours, 50 μL of MTT (concentration equal to 2.5 mg/mL) were added to each well. After incubation at 37° C. for 3 hours, the purple formazan crystals were formed. The formed crystals were solubilized in dimethylsulfoxide (DMSO; Sigma-Aldrich). Specifically, after removing the MTT from the wells, 100 μL of DMSO were added in order to lyse the cellular and mitochondrial membranes, and solubilize the formazan crystals. After 10 minutes, absorbance values were measured at 595 nm using a Synergy HT microplate reader (BioTek Instruments) and the results expressed as % with respect to control. […]

Data set [3] in a line: Solubility of the test substances. The class given is physicochemical.
Setting [4] is: 1 mM, 24 hrs, FIG. 9, Dunnett's test.
Where [5] appears, read: 10 mM, 24 hrs, FIG. 8, Dunnett's test.
[6] abbreviates: 10 mM, 24 hrs, FIG. 9, Dunnett's test.
Setting [7] is: 24 hrs exposure, no NGF, FIG. 8.
Where [8] appears, read: SH-SY5Y, read-out: inhibition of TrkA activation by NGF, 10 mM, 24 hrs exposure, FIG. 8.
[9] abbreviates: 10 mM, 90 min, FIG. 4, Tukey's test.
The mark [10] stands for this setting: SH-SY5Y, read-out: inhibition of NGF (reduction of the response to NGF).
Setting [11] is: SH-SY5Y, read-out: inhibition of TrkA activation by NGF.

By IC50 is commonly meant the concentration needed to halve the response being measured. In general, solubility refers to the dissolved amount per volume that the medium holds. High values mean much dissolved substance, low ones little dissolved substance.

Values after ≈ are worked out from the molar mass of the structure shown. Where two headings read alike, the source gives them in different places.

T1 sequence (P04629 33-796): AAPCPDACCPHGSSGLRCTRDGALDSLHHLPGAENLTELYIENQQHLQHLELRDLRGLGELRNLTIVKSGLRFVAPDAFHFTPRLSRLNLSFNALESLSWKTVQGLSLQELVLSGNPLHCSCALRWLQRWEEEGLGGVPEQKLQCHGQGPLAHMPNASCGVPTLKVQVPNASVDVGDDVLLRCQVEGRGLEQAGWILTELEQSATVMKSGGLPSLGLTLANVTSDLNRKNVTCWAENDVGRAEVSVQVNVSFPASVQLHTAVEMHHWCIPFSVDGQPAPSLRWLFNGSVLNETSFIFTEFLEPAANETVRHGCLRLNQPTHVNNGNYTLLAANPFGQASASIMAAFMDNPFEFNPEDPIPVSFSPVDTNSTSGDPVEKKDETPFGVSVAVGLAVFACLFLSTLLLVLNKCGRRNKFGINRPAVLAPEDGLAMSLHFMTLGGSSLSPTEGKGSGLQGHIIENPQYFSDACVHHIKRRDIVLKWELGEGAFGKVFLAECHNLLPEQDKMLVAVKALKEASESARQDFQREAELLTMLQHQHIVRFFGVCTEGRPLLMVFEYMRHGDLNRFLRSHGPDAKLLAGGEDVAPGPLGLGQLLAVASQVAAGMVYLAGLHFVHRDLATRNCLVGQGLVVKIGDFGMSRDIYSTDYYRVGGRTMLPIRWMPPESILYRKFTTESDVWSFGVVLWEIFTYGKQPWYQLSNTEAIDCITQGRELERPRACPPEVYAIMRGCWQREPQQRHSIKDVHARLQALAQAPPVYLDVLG

In the case of `O=C(O)CSCC(=O)N[C@H]1CCSC1=O` [Erdo S], the “Statistically significant (NGF vs. substance + NGF)” value is reported as “No” in data set [1] (1 nM, 24 hrs, FIG. 9, Dunnett's test); “Yes” in data set [1] (100 nM, 24 hrs, FIG. 9, Dunnett's test); “Yes” in data set [1] (1 uM, 24 hrs, FIG. 9, Dunnett's test); “Yes” in data set [1] (0.01 mM, 24 hrs, FIG. 9, Dunnett's test); “Yes” in data set [1] (0.05 mM, 24 hrs, FIG. 9, Dunnett's test); “Yes” in data set [1] (0.1 mM, 24 hrs, FIG. 9, Dunnett's test). In addition, the “Statistically significant (NGF vs. substance + NGF)” value is on record as “No” in data set [1] (setting [4]); “Yes” in data set [1] (5 mM, 24 hrs, FIG. 9, Dunnett's test); “Yes” in data set [1] (setting [5]); “Yes” in data set [1] (setting [6]). The “effect on TrkA activation by NGF” value in data set [1] (100 nM, 24 hrs, no change up to 10 mM, FIG. 9) is on record as “already maximal”. The half-inhibitory concentration (IC50) in data set [1] (24 hrs exposure, FIG. 9) fell in the range of 0.001 to 0.1 µM. The “effect on the basal activity” value in data set [1] (setting [7]) is reported as “no effect”. The inhibition at 10000 µM in data set [1] (setting [8]) was determined as 41%.
Turning to `O=C(O)CSCC(=O)NC(CCS)C(=O)O` (stereo not shown) [Met-1], the “Statistically significant (NGF vs. substance + NGF)” value in data set [1] (setting [9]) was “Yes”; in data set [1] (20 mM, 90 min, FIG. 3, Tukey's test), “Yes”; in data set [1] (20 mM, 90 min, FIG. 4, Tukey's test) it was “Yes”; in data set [1] (40 mM, 90 min, FIG. 3, Tukey's test) it was “Yes”. In data set [1] (20 and 40 mM, 90 min, no NGF, FIG. 3), the “effect on basal pTrkA levels (substance alone)” value is recorded as “did not alter”. In addition, the “effect on basal activity in absence of NGF” value in data set [1] (90 min, no NGF) is on record as “do not modify”. In addition, in data set [1] (setting [10]), the inhibition at 10000 µM worked out at 23%. For the same molecule, the inhibition at 20000 µM in data set [1] (setting [10]) came out at 24.5%; in data set [1] (setting [11]), 34%. Besides, in data set [1] (setting [11]), the inhibition at 40000 µM turned out to be 52%. Besides, in data set [2] (24 h, 10 mM), the “decrease of mitochondrial activity” value worked out at 17.5%. Besides, the concentration in solution in data set [3] (water) (solubility) was 164 mg/mL (≈ 613 mM).
In the case of `O=C(O)CSCC(=O)NC1CCSC1=O` (racemic) [erdosteine, (2-[N-3-(2-oxotetrahydrothienyl)]acetamido)-thioglycolic acid, reference compound], the “Statistically significant (NGF vs. substance + NGF)” value is reported as “No” in data set [1] (0.1 mM, 24 h, FIG. 7, Tukey's test); “Yes” in data set [1] (0.5 mM, 24 h, FIG. 7, Tukey's test); “Yes” in data set [1] (1 mM, 24 h, FIG. 7, Tukey's test); “No” in data set [1] (setting [4]); “Yes” in data set [1] (5 mM, 24 h, FIG. 7, Tukey's test); “Yes” in data set [1] (10 mM, 90', FIG. 6, Tukey's test). The “Statistically significant (NGF vs. substance + NGF)” value is listed as “No” in data set [1] (setting [9]); “Yes” in data set [1] (10 mM, 24 h, FIG. 6, Tukey's test); “Yes” in data set [1] (10 mM, 24 h, FIG. 7, Tukey's test); “Yes” in data set [1] (setting [5]); “Yes” in data set [1] (setting [6]). Also, the “inhibitory action on TrkA activation by NGF” value is on record as “ineffective” in data set [1] (0.1 mM, 24 hrs exposure, FIG. 7); “a trend which is appreciable but not strongly statistically significant” in data set [1] (0.5 mM, 24 hrs exposure, FIG. 7); “significant inhibitory action” in data set [1] (1.0 mM, 24 hrs exposure, FIG. 7). In data set [1] (1 mM and higher (up to 10 mM), 24 hrs exposure, FIG. 7), the “inhibition of TrkA activation by NGF at plateau” value was “around 40%”. In addition, the “effect on basal activity in absence of NGF” value in data set [1] (90 min, no NGF) is on record as “do not modify”. Further, in data set [1] (24 hrs exposure, FIG. 9), the IC50 was in the range of 500 to 1000 µM. Also, the inhibition at 10000 µM in data set [1] (SH-SY5Y, 10 mM, 24 hours exposure, FIG. 6, read-out: inhibition of TrkA phosphorylation) is 42.2%; in data set [1] (SH-SY5Y, read-out: inhibition of NGF (reduction of the response to NGF), 10 mM, 90 min pre-exposure, NGF 100 ng/ml, FIG. 4) it was 8.2%; in data set [1] (SH-SY5Y, read-out: inhibition of TrkA activation by NGF, 10 mM, 90 min exposure, FIG. 6), 13.9%; in data set [1] (setting [8]) it was 36%. Also, the “decrease in mitochondrial activity” value in data set [2] (90 min, 20 mM) is recorded as 16.3%. Moreover, in data set [3] (37 °C, aqueous buffer, MEM, warming 20 minutes at 37°), the concentration in solution (solubility at 20 min) came to 11 mg/mL (≈ 44.1 mM).
For the molecule `O=C(O)CSCC(=O)N[C@@H]1CCSC1=O` [Erdo R], the “inhibition of TrkA activation by NGF” value in data set [1] (10 mM, 24 hrs exposure, FIG. 8) is given as 30%. Moreover, in data set [1] (setting [5]), the “Statistically significant (NGF vs. substance + NGF)” value is reported as “Yes”. Further, the “effect on the basal activity” value in data set [1] (setting [7]) is reported as “no effect”.
